pIC50: −log10 of the molar value.
Tests used:
[1] = Thermal stability of the compound assessed as onset of decomposition temperature by thermogravimetric analysis; assay type: physicochemical
[2] = Thermal stability of the compound assessed as melting point by thermogravimetric analysis; assay type: physicochemical
Plasmodium falciparum [3] = assay: Antiplasmodial activity against chloroquine-sensitive asexual erythrocyte stage form Plasmodium falciparum NF54 measured after 48 hrs by pLDH assay; assay type: functional; conditions: NF54, 48 h
Plasmodium falciparum [4] = assay: Antiplasmodial activity against chloroquine-resistant asexual erythrocyte stage form Plasmodium falciparum Dd2 measured after 48 hrs by pLDH assay; assay type: functional; conditions: Dd2, 48 h
[5] = Resistance index, ratio of IC50 for chloroquine-resistant asexual erythrocyte stage form Plasmodium falciparum Dd2 to IC50 for chloroquine-sensitive asexual erythrocyte stage form Plasmodium falciparum NF54; assay type: functional
[6] = Cytotoxicity against human WI38 cells assessed as reduction in cell viability measured after 48 hrs by SRB assay; assay type: toxicity, cell-based, WI-38
[7] = Cytotoxicity against CHO cells assessed as reduction in cell viability measured after 48 hrs by MTT assay; assay type: toxicity, cell-based, Cricetulus griseus; conditions: Chinese hamster
[8] = Selectivity index, ratio of IC50 for human WI38 cells to IC50 for chloroquine-sensitive asexual erythrocyte stage form Plasmodium falciparum NF54; assay type: toxicity, cell-based, WI-38; conditions: read-out: Ratio IC50
[9] = Selectivity index, ratio of IC50 for CHO cells to IC50 for chloroquine-sensitive asexual erythrocyte stage form Plasmodium falciparum NF54; assay type: toxicity, cell-based; conditions: hamster, read-out: Ratio IC50
[10] = Growth inhibition of human TK10 cells measured after 24 hrs by SRB assay; assay type: functional, cell-based; conditions: TK-10, 24 h
[11] = Growth inhibition of human UACC62 cells measured after 24 hrs by SRB assay; assay type: functional, cell-based; conditions: UACC-62, 24 h
[12] = Growth inhibition of human MCF7 cells measured after 24 hrs by SRB assay; assay type: functional, cell-based; conditions: MCF7, 24 h
WI-38 = assay: Selectivity index, ratio of IC50 for human WI38 cells to IC50 for human TK10 cells; assay type: functional
UACC-62 = assay: Selectivity index, ratio of IC50 for human WI38 cells to IC50 for human UACC62 cells; assay type: functional
MCF7 = assay: Selectivity index, ratio of IC50 for human WI38 cells to IC50 for human MCF7 cells; assay type: functional
CHO [13] = assay: Selectivity index, ratio of IC50 for CHO cells to IC50 for human TK10 cells; assay type: functional
CHO [14] = assay: Selectivity index, ratio of IC50 for CHO cells to IC50 for human UACC62 cells; assay type: functional
CHO [15] = assay: Selectivity index, ratio of IC50 for CHO cells to IC50 for human MCF7 cells; assay type: functional
[16] = Selectivity index, ratio of IC50 for human TK10 cells to IC50 for chloroquine-resistant asexual erythrocyte stage form Plasmodium falciparum Dd2; assay type: functional, TK-10
[17] = Selectivity index, ratio of IC50 for human UACC62 cells to IC50 for chloroquine-resistant asexual erythrocyte stage form Plasmodium falciparum Dd2; assay type: functional, UACC-62
[18] = Selectivity index, ratio of IC50 for human MCF7 cells to IC50 for chloroquine-resistant asexual erythrocyte stage form Plasmodium falciparum Dd2; assay type: functional
[19] = Thermal stability of the compound assessed as transition temperature by differential scanning calorimetry; assay type: physicochemical
[20] = Safety index, ratio of compound IC50 to emetine IC50 for human WI38 cells; assay type: ADME, cell-based, WI-38; conditions: read-out: Ratio IC50
[21] = Safety index, ratio of compound IC50 to emetine IC50 for CHO cells; assay type: ADME, cell-based, Cricetulus griseus; conditions: Chinese hamster, read-out: Ratio IC50
[22] = Thermal stability of the compound assessed as endotherm temperature by differential scanning calorimetry; assay type: physicochemical

SMILES | T [1] [°C] | Tm [2] [°C] | pIC50 (Plasmodium falciparum [3]) | pIC50 (Plasmodium falciparum [4]) | Ratio IC50 [5] | IC50 at 48 h [6] [µM] | IC50 at 48 h [7] [µM] | selectivity ratio [8] | selectivity ratio [9] | pIC50 [10] | pIC50 [11] | pIC50 [12] | also measured
C[C@@H]1CC[C@H]2C(C)(COC(=O)[C@@H]3CCCN3C(=O)C(F)(F)F)O[C@@H]3O[C@]4(C)CC[C@@H]1[C@]32OO4 (some centres not stated) | 126 | 172.2 | 8.10 | 8.11 | 1 | 31.6 | 97.1 | 4000 | 12300 | 4.89 | 5.52 | 5.54 | Ratio IC50 (WI-38): 2; Ratio IC50 (UACC-62): 11; Ratio IC50 (MCF7): 11; Ratio IC50 (CHO [13]): 7.5; Ratio IC50 (CHO [14]): 32.4; Ratio IC50 (CHO [15]): 33.5; Ratio IC50 [16]: 1667; Ratio IC50 [17]: 385; Ratio IC50 [18]: 372; T [19]: 116 °C; selectivity ratio [20]: ≤ 600; selectivity ratio [21]: ≤ 600
CC(=O)OCC1(C)O[C@@H]2O[C@]3(C)CC[C@H]4[C@H](C)CC[C@@H]1[C@@]24OO3 (some centres not stated) | 164 | 171.2 | 7.95 | 7.90 | 1.1 | > 100 | > 100 | > 8920 | > 8920 | < 4.00 | < 4.00 | < 4.00 | T [22]: 90 °C
